IC50 data for 22 compounds are collected here from patent publication US8026257B2 (Bristol-Myers Squibb Company, priority 2007, dated 2011).

One assay deals with hSERT (Homo sapiens, UniProt P31645). The assay is described as follows: SERT radioligand binding assay ([125I]RTI-55, HEK-hSERT membranes). As to conditions: HEK-293 hSERT membranes, 260 pM [125I]RTI-55, 1 hour at room temperature. Here is the method: (§1) NK-1 Binding assay. Crude membrane suspensions were prepared for the NK1 and SERT radioligand binding assays from U373 cells or recombinant HEK-293 cells expressing hSERT, respectively. Cells were harvested from T-175 flasks as follows. The medium is removed from the flasks and the cells rinsed with HBSS without Ca and without Mg. The cells are then incubated for 5-10 minutes in 10 mM Tris-Cl, pH 7.5, 5 mM EDTA before the cells are lifted with a combination of pipetting and scraping, as needed. To prepare membranes, the cell suspension is collected into centrifuge bottles and homogenized for 30 seconds with a Polytron homogenizer. The suspension is centrifuged for 30 min@32,000×g, 4° C., then the supernatant is decanted and the pellet resuspended and homogenized in 50 mM Tris-Cl, pH 7.5, 1 mM EDTA for 10 seconds. The suspension is then centrifuged again for 30 min@32,000×g, 4° C. The supernatant is decanted and the pellet resuspended in 50 mM Tris-Cl, pH 7.5, 1 mM EDTA and briefly homogenized. A Bradford assay (Bio-rad) is performed and the membrane preparation diluted to 2 mg/ml with 50 mM Tris-Cl, pH 7.5, 1 mM EDTA. Aliquots are prepared, and then frozen and stored at −80° C.
hSERT, sequence (P31645 whole entry): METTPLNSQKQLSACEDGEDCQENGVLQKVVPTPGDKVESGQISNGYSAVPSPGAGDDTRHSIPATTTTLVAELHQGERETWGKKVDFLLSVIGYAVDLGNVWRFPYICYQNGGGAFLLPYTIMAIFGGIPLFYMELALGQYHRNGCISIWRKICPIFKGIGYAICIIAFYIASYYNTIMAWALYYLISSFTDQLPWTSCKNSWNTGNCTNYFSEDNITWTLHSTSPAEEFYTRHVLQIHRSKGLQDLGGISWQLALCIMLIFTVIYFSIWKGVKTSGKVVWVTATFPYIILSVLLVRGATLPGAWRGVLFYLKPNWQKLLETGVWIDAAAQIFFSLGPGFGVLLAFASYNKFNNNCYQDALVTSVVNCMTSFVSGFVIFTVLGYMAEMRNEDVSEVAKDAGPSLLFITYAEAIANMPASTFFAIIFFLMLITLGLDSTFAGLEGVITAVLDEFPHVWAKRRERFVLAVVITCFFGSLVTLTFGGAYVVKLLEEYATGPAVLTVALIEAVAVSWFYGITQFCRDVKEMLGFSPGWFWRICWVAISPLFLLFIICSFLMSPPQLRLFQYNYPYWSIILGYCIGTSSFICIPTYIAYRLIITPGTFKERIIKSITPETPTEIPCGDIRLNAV
SERT radioligand binding assay. Compounds are dissolved in 100% DMSO at a concentration 100× the desired highest assay concentration, serially diluted 1:3 in 100% DMSO, and 0.4 ul/well of each solution is dispensed to a Nunc polypropylene, round bottom, 384 well plate. 100% inhibition is defined with 0.4 ul/well of 1 mM fluoxetine (Sigma F-132) dissolved in DMSO. 20 ul/well of a 2× HEK-hSERT membrane preparation (15 ug/ml in 50 mM Tris-Cl, pH 7.5, 120 mM NaCl, 5mM KCl) and 20 ul/well of a 2× radioligand solution (520 pM [^125I]RTI-55 (Perkin-Elmer NEX-272) in 50 mM Tris-Cl, pH 7.5, 120 mM NaCl, 5mM KCl) are added to each well and the reaction incubated for 1 hour at room temperature. The contents of the assay plate are then transferred to a Millipore MultiscreenHTs GF/B filter plate which has been pretreated with 0.5% PEI for at least one hour. The plate is vacuum filtered and washed with 7 washes of 100 ul/well of 50 mM Tris-Cl, pH 7.5, 120 mM NaCl, 5 mM KCl chilled to 4° C. The filtration and washing is completed in less than 90 s. The plates are air-dried overnight, 12 ul/well of MicroScint scintillation fluid added, and the plates counted in a Trilux.
(§2) Data analysis. The raw data are normalized to percent inhibition using control wells defining 0% (DMSO only) and 100% (selective inhibitor) inhibition which are run on each plate. Each plate is run in triplicate, and the concentration response curve thus generated is fit using the four-parameter dose response equation, Y=Bottom+(Top-Bottom)/(1+10^((LogIC50−X)*HillSlope)) in order to determine the IC50 value for each compound. The radioligand concentration chosen for each assay corresponds to the Kd concentration determined through saturation binding analysis for each assay.

The next assay addresses T1, NK-1 (Homo sapiens, UniProt P25103).
T1 construct: 30 ul/well of a 2×U373 membrane preparation
Kind of assay: NK1 radioligand binding assay ([125I]Substance P, U373 membranes). As to conditions: U373 cell membranes, 200 pM [125I]Substance P, 1 hour at room temperature. The procedure: as §1
NK1 radioligand binding assay. Compounds are dissolved in 100% DMSO at a concentration 100× the desired highest assay concentration, serially diluted 1:3 in 100% DMSO, and 0.6 ul/well of each solution is dispensed to a Nunc polypropylene, round bottom, 384 well plate. 100% inhibition is defined with 0.6 ul/well of 1 mM L-733,060 (Sigma L-137) dissolved in DMSO. 30 ul/well of a 2×U373 membrane preparation (267 ug/ml in 100 mM Tris-Cl, pH 7.5, 6 mM MgCl2, 0.2% (v/v) Sigma mammalian protease inhibitor cocktail (Sigma P-8340), and 4 ug/ml chymostatin, Sigma C-7268) and 30 ul/well of a 2× radioligand solution (400 pM [^125I]Substance P (Perkin ElmerNEX-190) in 1% (w/v) BSA (Sigma A-2153), 0.1 mg/ml bacitracin, Sigma B-0125) are added to the well and the reaction incubated for 1 hour at room temperature. The contents of the assay plate are then transferred to a Millipore MultiscreenHTS GF/B filter plate which has been pretreated with 0.5% PEI for at least one hour. The plate is vacuum filtered and washed with 7 washes of 100 ul/well of 20 mM Tris-Cl, pH 7.5, 0.5% (w/v) BSA chilled to 4° C. The filtration and washing is completed in less than 90 s. The plates are air-dried overnight, 12 ul/well of MicroScint scintillation fluid added, and the plates counted in a Trilux.
as §2

Read-outs that look alike come from different tables or passages of the source. Where only a bound is given, the exact number is not on record here.

T1 sequence (P25103 whole entry): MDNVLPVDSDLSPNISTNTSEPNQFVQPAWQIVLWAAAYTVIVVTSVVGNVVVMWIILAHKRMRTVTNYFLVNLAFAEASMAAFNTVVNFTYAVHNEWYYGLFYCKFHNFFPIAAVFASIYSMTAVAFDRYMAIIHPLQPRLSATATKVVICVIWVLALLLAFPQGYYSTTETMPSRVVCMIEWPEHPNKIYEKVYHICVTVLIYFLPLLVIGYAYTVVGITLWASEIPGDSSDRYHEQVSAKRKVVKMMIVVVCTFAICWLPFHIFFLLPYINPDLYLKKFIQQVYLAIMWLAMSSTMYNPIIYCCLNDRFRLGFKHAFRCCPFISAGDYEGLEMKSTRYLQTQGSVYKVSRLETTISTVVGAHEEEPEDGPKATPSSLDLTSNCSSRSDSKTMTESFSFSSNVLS

The IC50 is the concentration that gives 50% inhibition. As for `CC(OCC1(c2ccc(F)cc2)CCNCC1)c1cc(C(F)(F)F)cc2cnn(C)c12` (single isomer, unassigned) [Example 26, 7-(1-((4-(4-Fluorophenyl)piperidin-4-yl)methoxy)ethyl)-1-methyl-5-(trifluoromethyl)-1H-indazole], the half-inhibitory concentration (IC50) on hSERT (read-out: SERT IC50) is 0.01 to 100 nM; at NK-1, 100 to 300 nM.
Regarding `CC(OCC1(c2ccc(F)cc2)CCN(C)CC1)c1cc(C(F)(F)F)cc2cnn(C)c12` (single isomer, unassigned) [Example 27, 7-(1-((4-(4-Fluorophenyl)-1-methylpiperidin-4-yl)methoxy)ethyl)-1-methyl-5-(trifluoromethyl)-1H-indazole], the IC50 was in the range of 0.01 to 100 nM at hSERT (read-out: SERT IC50) and 100 to 300 nM on NK-1.
In the same order, the values of `CC(OCC1(c2ccc(F)cc2)CCNCC1)c1cc(C(F)(F)F)cc2cn(C)nc12` (single isomer, unassigned) [Example 28, 7-(1-((4-(4-Fluorophenyl)piperidin-4-yl)methoxy)ethyl)-2-methyl-5-(trifluoromethyl)-2H-indazole] are 100 to 300 nM and more than 300 nM.
In the same order, the values of `CC(OCC1(c2ccc(F)cc2)CCN(C)CC1)c1cc(C(F)(F)F)cc2cn(C)nc12` (single isomer, unassigned) [Example 29, 7-(1-((4-(4-Fluorophenyl)-1-methylpiperidin-4-yl)methoxy)ethyl)-2-methyl-5-(trifluoromethyl)-2H-indazole] are 0.01 to 100 nM and more than 300 nM.
For the compound `CC(OCC1(c2ccc(F)cc2)CCNCC1)c1cc(C(F)(F)F)cc2cnn(C)c12` (single isomer, unassigned) [Example 30, 7-(1-((4-(4-Fluorophenyl)piperidin-4-yl)methoxy)ethyl)-1-methyl-5-(trifluoromethyl)-1H-indazole], the IC50 at hSERT (read-out: SERT IC50) and on NK-1 was 0.01 to 100 nM throughout.
Take `CC(OCC1(c2ccc(F)cc2)CCN(C)CC1)c1cc(C(F)(F)F)cc2cnn(C)c12` (single isomer, unassigned) [Example 31, 7-(1-((4-(4-Fluorophenyl)-1-methylpiperidin-4-yl)methoxy)ethyl)-1-methyl-5-(trifluoromethyl)-1H-indazole]: the concentration for half-maximal inhibition (IC50) at hSERT (read-out: SERT IC50) and on NK-1 was 0.01 to 100 nM throughout.
For `CC(OCC1(c2ccc(F)cc2)CCNCC1)c1cc(C(F)(F)F)cc2cn(C)nc12` (single isomer, unassigned) [Example 32, 7-(1-((4-(4-Fluorophenyl)piperidin-4-yl)methoxy)ethyl)-2-methyl-5-(trifluoromethyl)-2H-indazole], the IC50 at hSERT (read-out: SERT IC50) and at NK-1 was 0.01 to 100 nM in each case.
As to `CC(OCC1(c2ccc(F)cc2)CCN(C)CC1)c1cc(C(F)(F)F)cc2cn(C)nc12` (single isomer, unassigned) [Example 33, 7-(1-((4-(4-Fluorophenyl)-1-methylpiperidin-4-yl)methoxy)ethyl)-2-methyl-5-(trifluoromethyl)-2H-indazole], the IC50 on hSERT (read-out: SERT IC50) and on NK-1 was 0.01 to 100 nM throughout.
Consider `CC(OCC1(c2ccc(F)cc2)CCN(C)CC1)c1cc(C2CC2)cc2c(Cl)n[nH]c12` (single isomer, unassigned) [Example 54], for which the IC50 on hSERT (SERT IC50 (nM)) and on NK-1 was 0.01 to 100 nM throughout.
With `CC(OCC1(c2ccc(F)cc2)CCN(C)CC1)c1cc(C(F)(F)F)cc2ccn(C)c12` (single isomer, unassigned) [Example 74, 7-(1-((4-(4-Fluorophenyl)-1-methylpiperidin-4-yl)methoxy)ethyl)-1-methyl-5-(trifluoromethyl)-1H-indole], the IC50 was 100 to 300 nM on hSERT (read-out: SERT IC50) and more than 300 nM on NK-1.
The corresponding values for `CC(OCC1(c2ccc(F)cc2)CCN(C)CC1)c1cc(C(F)(F)F)cc2ccn(C)c12` (single isomer, unassigned) [Example 75, 7-(1-((4-(4-Fluorophenyl)-1-methylpiperidin-4-yl)methoxy)ethyl)-1-methyl-5-(trifluoromethyl)-1H-indole] are 0.01 to 100 nM and 0.01 to 100 nM.
In the same order, the values of `CC(OCC1(c2ccccc2)CCN(C)CC1)c1cc(Br)cc2c1ncn2CC1CC1` (single isomer, unassigned) [Example 130] are 0.01 to 100 nM and more than 300 nM.
In the same order, the values of `CC(OCC1(c2ccccc2)CCN(C)CC1)c1cc(Br)cc2c1ncn2CC1CC1` (single isomer, unassigned) [Example 131] are 0.01 to 100 nM and 0.01 to 100 nM.
In the case of `CC(OCC1(c2ccc(F)cc2)CCN(C)CC1)c1cc(C(F)(F)F)cc2c1ncn2CC1CC1` (single isomer, unassigned) [Example 133], the figures for the IC50 at hSERT (read-out: SERT IC50) and on NK-1 were 0.01 to 100 nM and more than 300 nM, respectively.
For `CC(OCC1(c2ccc(F)cc2)CCN(C)CC1)c1cc(C(F)(F)F)cc2c1ncn2CC1CC1` (single isomer, unassigned) [Example 134], the half-maximal inhibitory concentration (IC50) on hSERT (read-out: SERT IC50) and on NK-1 was 0.01 to 100 nM each time.
Turning to `CCn1cnc2c(C(C)OCC3(c4ccc(F)cc4)CCN(C)CC3)cc(C(F)(F)F)cc21` (single isomer, unassigned) [Example 135], the IC50 on hSERT (read-out: SERT IC50) was 0.01 to 100 nM; on NK-1 it was more than 300 nM.
The corresponding values for `CCn1cnc2c(C(C)OCC3(c4ccc(F)cc4)CCN(C)CC3)cc(C(F)(F)F)cc21` (single isomer, unassigned) [Example 136] are 0.01 to 100 nM and 0.01 to 100 nM.
The corresponding values for `CCn1cnc2c(C(C)OCC3(c4ccccc4)CCN(C)CC3)cc(C(F)(F)F)cc21` (single isomer, unassigned) [Example 137] are 0.01 to 100 nM and 100 to 300 nM.
The corresponding values for `Cc1cc(COCC2(c3ccccc3)CCNCC2)cc2cn[nH]c12` [Example 1, 7-Methyl-5-(((4-phenylpiperidin-4-yl)methoxy)methyl)-1H-indazole] are 0.01 to 100 nM and more than 300 nM.
Regarding `Brc1cc(COCC2(c3ccccc3)CCNCC2)c2[nH]ncc2c1` [Example 2, 5-Bromo-7-(((4-phenylpiperidin-4-yl)methoxy)methyl)-1H-indazole], the IC50 at hSERT (read-out: SERT IC50) and on NK-1 was 0.01 to 100 nM throughout.
With `N#Cc1ccc(-c2cc(COCC3(c4ccccc4)CCNCC3)c3[nH]ncc3c2)cc1` [Example 3, 4-(7-(((4-Phenylpiperidin-4-yl)methoxy)methyl)-1H-indazol-5-yl)benzonitrile], the 50% inhibitory concentration (IC50) at hSERT (read-out: SERT IC50) and at NK-1 was 0.01 to 100 nM each time.
Regarding `Cn1ncc2cc(-c3ccc(C#N)cc3)cc(COCC3(c4ccccc4)CCNCC3)c21` [Example 4, 4-(1-Methyl-7-(((4-phenylpiperidin-4-yl)methoxy)methyl)-1H-indazol-5-yl)benzonitrile], the IC50 at hSERT (read-out: SERT IC50) lay within 0.01 to 100 nM; at NK-1, 100 to 300 nM.
